Where “and” joins values, the source holds several entries; their conditions need not be identical. Identical values can stand only once.
molecular target: T1, Tyrosinase (Homo sapiens, UniProt P14679); assay: Competitive inhibition of His-tagged human tyrosinase expressed in HEK293 cells; assay type: cell-based
T1 sequence (P14679 whole entry): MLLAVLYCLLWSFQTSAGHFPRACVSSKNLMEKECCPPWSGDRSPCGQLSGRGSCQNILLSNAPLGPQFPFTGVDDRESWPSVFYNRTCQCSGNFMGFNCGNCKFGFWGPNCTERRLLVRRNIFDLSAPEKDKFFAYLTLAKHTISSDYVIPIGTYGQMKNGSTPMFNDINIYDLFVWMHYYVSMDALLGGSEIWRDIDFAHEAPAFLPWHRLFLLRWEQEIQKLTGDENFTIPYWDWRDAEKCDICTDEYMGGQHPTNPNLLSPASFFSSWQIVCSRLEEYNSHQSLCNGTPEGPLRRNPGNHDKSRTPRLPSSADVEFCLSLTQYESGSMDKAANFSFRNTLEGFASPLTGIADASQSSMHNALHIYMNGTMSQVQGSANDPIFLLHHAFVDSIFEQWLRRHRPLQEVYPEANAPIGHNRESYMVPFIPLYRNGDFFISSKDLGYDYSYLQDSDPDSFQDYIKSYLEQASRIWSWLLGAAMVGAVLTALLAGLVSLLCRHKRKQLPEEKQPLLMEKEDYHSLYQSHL

NC(=S)N/N=C/c1ccc(OCc2cn(Cc3ccc(F)cc3)nn2)cc1 and Cc1ccc(Cn2cc(COc3ccc(/C=N/NC(N)=S)cc3)nn2)cc1 are the same in IC50: 0.22 µM for the first, 0.22 µM for the second.

Cc1cccc(Cn2cc(COc3ccc(/C=N/NC(N)=S)cc3)nn2)c1 and NC(=S)N/N=C/c1ccc(OCc2cn(Cc3ccc(Cl)c(Cl)c3)nn2)cc1 are the same in IC50: 0.22 µM for the first, 0.22 µM for the second.

molecular target: T2, Mushroom tyrosinase (Agaricus bisporus, UniProt O42713+Q00024+C7FF04+C7FF05); assay: Inhibition of mushroom tyrosinase; assay type: protein assay

Compared with COc1ccccc1-n1c(SCC(=O)Nc2ccc(Br)cc2)nnc1-c1ccccc1F, COc1ccccc1-n1c(SCC(=O)Nc2ccccc2)nnc1-c1ccccc1 is 5-fold higher in IC50: 0.0048 µM for the first, 0.0238 µM for the second.

CCc1ccccc1NC(=O)CSc1nnc(CCCc2c[nH]c3ccccc23)n1CC and CCn1c(CCCc2c[nH]c3ccccc23)nnc1SCC(=O)Nc1ccccc1C are within 1.5-fold of each other in IC50: 0.033 µM for the first, 0.036 µM for the second.

Compared with CCn1c(CCCc2c[nH]c3ccccc23)nnc1SCC(=O)Nc1ccc(C)cc1C, CCn1c(CCCc2c[nH]c3ccccc23)nnc1SCC(=O)Nc1cccc(C)c1C is 4.2-fold higher in IC50: 0.034 µM for the first, 0.142 µM for the second.

O=C1N=C(Nc2ccncc2)S/C1=C\c1ccccc1OCc1cn(Cc2ccc(Cl)c(Cl)c2)nn1 and O=C1N=C(Nc2ccncc2)S/C1=C\c1ccccc1OCc1cn(Cc2ccccc2Cl)nn1 are within 1.5-fold of each other in IC50: 5.9 µM for the first, 6.34 µM for the second.

Cc1ccc(Cn2cc(COc3ccc(-c4nc5ccccc5[nH]4)cc3)nn2)cc1C and Cc1ccc(Cn2cc(COc3ccc(-c4nc5ccccc5[nH]4)cc3)nn2)cc1 are within 1.5-fold of each other in IC50: 9.42 µM for the first, 10.34 µM for the second.

Compared with COc1ccc2c(c1)CC/C(=C\c1ccc(OCc3cn(Cc4ccccc4F)nn3)c(OC)c1)C2=O, COc1ccc2c(c1)CC/C(=C\c1ccc(OCc3cn(Cc4cccc(Cl)c4)nn3)c(OC)c1)C2=O is 14-fold lower in IC50: 67.18 µM for the first, 4.64 µM for the second.

O=C1N=C(Nc2ccccc2)S/C1=C\c1ccccc1OCc1cn(Cc2ccccc2)nn1 and O=C1N=C(Nc2ccccc2)S/C1=C\c1ccccc1OCc1cn(Cc2cccc(Br)c2)nn1 are within 1.5-fold of each other in IC50: 8.92 µM for the first, 9.81 µM for the second.

Cc1ccc2nc(-c3ccc(OCc4cn(Cc5ccccc5)nn4)cc3)[nH]c2c1 and O=C1N=C(Nc2ccccc2)S/C1=C\c1ccc(OCc2cnnn2Cc2ccc(Cl)c(Cl)c2)cc1 are within 1.5-fold of each other in IC50: 43.3 µM for the first, 49.4 µM for the second.

Compared with COc1cc(C=O)ccc1O [VANILLIN], C=CCc1ccc(O)c(OC)c1 [EUGENOL] is 4.4-fold lower in IC50: 4103 µM for the first, 923 µM for the second.

Compared with COc1ccc(/C=N/Nc2nnc(S)n2N)cc1O, COc1cc(/C=N/Nc2nnc(S)n2N)ccc1O is 4.3-fold higher in IC50: 3.4 µM for the first, 14.6 µM for the second.

Compared with NC(=S)N/N=C/c1ccc(OCc2cn(CC(=O)NCc3ccccc3)nn2)cc1, CCOc1ccc(NC(=O)CSc2nnc(CCCc3c[nH]c4ccccc34)n2CC)cc1 is 1.5-fold lower in IC50: 0.11 µM for the first, 0.072 µM for the second.

First: Nn1c(S)nnc1N/N=C/c1cccc(Cl)c1
Second: Nn1c(S)nnc1N/N=C/c1cccc(C(F)(F)F)c1
The IC50 of the first is 1.7-fold higher: 15 µM for the first, 9 µM for the second.

CCn1c(CCCc2c[nH]c3ccccc23)nnc1SCC(=O)Nc1c(C)cccc1C showed an IC50 of 0.035 µM.

molecular target: T3, Mushroom tyrosinase (Agaricus bisporus) (UniProt O42713+Q00024+C7FF04+C7FF05); assay: (§1) Inhibition of mushroom tyrosinase using L-DOPA as substrate incubated for 15 mins by spectrophotometric analysis; assay type: protein assay

First: O=c1oc2ccccc2c2nn(Cc3cn(-c4ccccc4)nn3)cc12
Second: O=c1oc2ccccc2c2c1cnn2Cc1cn(-c2ccccc2)nn1
The inhibition of the first is lower: 69% for the first, 85% for the second.

molecular target: T2, Mushroom tyrosinase; assay: as §1; assay type: protein assay

O=C1NC(=S)NC(=O)C1=Cc1ccccc1OCc1cn(Cc2ccccc2)nn1 and O=C1NC(=O)C(=Cc2ccccc2OCc2cn(Cc3ccccc3)nn2)C(=O)N1 are the same in IC50: 44.2 µM for the first, 44.2 µM for the second.

For O=C1NC(=O)C(=Cc2ccccc2OCc2cn(Cc3ccc(Br)cc3)nn2)C(=O)N1, the IC50 was 26.8 µM and 49.1 µM.

molecular target: T2, Mushroom tyrosinase; assay: Inhibition of mushroom tyrosinase using L-DOPA as substrate preincubated for 10 mins; assay type: protein assay

Nn1c(SCc2cc(=O)c(O)co2)nnc1-c1ccccc1Br and Nn1c(SCc2cc(=O)c(O)co2)nnc1-c1ccccc1Cl are within 1.5-fold of each other in IC50: 5.98 µM for the first, 5.35 µM for the second.

O=C(CSc1nnc(-c2ccccc2)n1-c1ccc(F)cc1)Nc1ccc(Br)cc1 and O=C(CSc1nnc(-c2ccc(F)cc2)n1-c1ccc(F)cc1)Nc1ccccc1 are within 1.5-fold of each other in IC50: 0.142 µM for the first, 0.124 µM for the second.

Going from Nn1c(SCc2cc(=O)c(O)co2)nnc1-c1ccccc1 to Nn1c(SCc2cc(=O)c(O)co2)nnc1-c1ccc(Cl)cc1, the IC50 falls from 7.45 µM to 4.5 µM (1.7-fold).

Compared with O=c1cc(O)oc(CSc2nnc(-c3ccccc3)n2NCc2ccc(O)cc2O)c1, O=c1cc(O)oc(CSc2nnc(-c3ccccc3Cl)n2/N=C/c2ccc(O)c(O)c2)c1 is 3.9-fold higher in IC50: 1.35 µM for the first, 5.2 µM for the second.

Compared with Cc1nnc(SCc2cc(=O)c(O)co2)n1N, Cc1ccc(-c2nnc(SCc3cc(=O)c(O)co3)n2N)cc1 is 15-fold lower in IC50: 91.03 µM for the first, 6.25 µM for the second.

Going from Cn1cnnc1SCc1cc(=O)c(O)co1 to CCCCCn1nc(-c2ccccc2)n(CC(=O)NNC(=O)Nc2ccc(Cl)cc2Cl)c1=O, the IC50 falls from 19.18 µM to 0.001 µM (19000-fold).

O=C(CSc1nnc(-c2ccccc2F)n1-c1ccc(F)cc1)Nc1ccccc1 showed an IC50 of 0.11 µM.

molecular target: T3, Mushroom tyrosinase (Agaricus bisporus); assay: Inhibition of mushroom tyrosinase at 100 uM relative to control; assay type: protein assay

First: COc1ccc(/C=N/Nc2nnc(S)n2N)cc1O
Second: Nn1c(S)nnc1N/N=C/c1cccc(Cl)c1
The inhibition of the first is higher: 98% for the first, 81% for the second.

For Nn1c(S)nnc1N/N=C/c1cccc(C(F)(F)F)c1, the inhibition was 95%.

molecular target: T2, Mushroom tyrosinase; assay: Inhibition of mushroom tyrosinase using L-DOPA as substrate incubated for 20 mins; assay type: protein assay

Going from COc1ccccc1Cc1n[nH]c(=S)n1/N=C/Cc1ccc(O)cc1 to Oc1ccc(/C=N/n2c(Cc3ccccc3F)n[nH]c2=S)cc1, the IC50 falls from 20.27 µM to 6.23 µM (3.3-fold).

First: Oc1ccccc1Cc1n[nH]c(=S)n1/N=C/c1ccc[nH]1
Second: Fc1ccc(/C=N/n2c(Cc3ccccc3F)n[nH]c2=S)cc1
The IC50 of the first is 2.6-fold higher: 26.02 µM for the first, 10.09 µM for the second.

molecular target: T1, Tyrosinase; assay: Inhibition of C-terminal His-tagged truncated form of human tyrosinase using L-DOPA as substrate by spectrophotometric assay

O=C1c2ccccc2C(=O)N1Cc1cn(Cc2ccccc2[N+](=O)[O-])nn1 and O=C1c2ccccc2C(=O)N1Cc1cn(Cc2ccccc2Br)nn1 are within 1.5-fold of each other in IC50: 26.2 µM for the first, 26.5 µM for the second.

O=C1c2ccccc2C(=O)N1Cc1cn(Cc2cccc(Cl)c2)nn1 and O=C1c2ccccc2C(=O)N1Cc1cn(Cc2ccc(Br)cc2)nn1 are within 1.5-fold of each other in IC50: 48.3 µM for the first, 40.3 µM for the second.

O=C1NC(=S)NC(=O)C1=Cc1ccccc1OCc1cn(Cc2ccc(Br)cc2)nn1 and O=C1c2ccccc2C(=O)N1Cc1cn(Cc2ccccc2Cl)nn1 are within 1.5-fold of each other in IC50: 44.2 µM for the first, 47.2 µM for the second.

molecular target: T2, Mushroom tyrosinase; assay: Inhibition of mushroom tyrosinase using L-DOPA as substrate preincubated for 20 mins followed by substrate addition incubated for 10 mins by absorbance based analysis; assay type: protein assay

First: Cc1ccc(C(C)C)cc1OCc1cn(Cc2cc(=O)c(O)co2)nn1
Second: Cc1ccc(C(C)C)c(OCc2cn(Cc3cc(=O)c(O)co3)nn2)c1
The IC50 of the first is 9.9-fold lower: 0.07 µM for the first, 0.69 µM for the second.

First: O=c1cc(OCc2cn(Cc3cc(=O)c(O)co3)nn2)c2ccccc2o1
Second: O=c1ccc2ccc(OCc3cn(Cc4cc(=O)c(O)co4)nn3)cc2o1
The IC50 of the first is 12-fold lower: 0.02 µM for the first, 0.23 µM for the second.

First: O=c1cc(Cn2cc(COc3ccc4c(c3)OCO4)nn2)occ1O
Second: COc1cc(C(C)=O)ccc1OCc1cn(Cc2cc(=O)c(O)co2)nn1
The IC50 of the first is 2-fold higher: 0.06 µM for the first, 0.03 µM for the second.

molecular target: T2, Mushroom tyrosinase; assay: Inhibition of mushroom tyrosinase using L-DOPA as substrate preincubated for 10 mins followed by substrate addition and measured after 15 mins by spectrophotometric method; assay type: protein assay

First: Nc1nc(Cc2nnc(SCC(=O)NCCc3ccccc3)n2-c2ccccc2)cs1
Second: Cc1ccccc1CNC(=O)CSc1nnc(Cc2csc(N)n2)n1-c1ccccc1
The IC50 of the first is 1.5-fold lower: 0.01 µM for the first, 0.015 µM for the second.

First: Cc1cc(C)cc(CNC(=O)CSc2nnc(Cc3csc(N)n3)n2-c2ccccc2)c1
Second: Cc1ccc(CNC(=O)CSc2nnc(Cc3csc(N)n3)n2-c2ccccc2)cc1C
The IC50 of the first is 2.1-fold higher: 0.24 µM for the first, 0.113 µM for the second.

Going from Cc1cccc(CNC(=O)CSc2nnc(Cc3csc(N)n3)n2-c2ccccc2)c1C to Cc1cccc(C)c1CNC(=O)CSc1nnc(Cc2csc(N)n2)n1-c1ccccc1, the IC50 falls from 2.01 µM to 0.05 µM (40-fold).

In the case of CCc1ccc(CNC(=O)CSc2nnc(Cc3csc(N)n3)n2-c2ccccc2)cc1, the IC50 is reported as 0.122 µM.

molecular target: T2, Mushroom tyrosinase; assay: Inhibition of mushroom tyrosinase using L-DOPA as substrate pre-treated for 10 mins followed by substrate addition measured for 20 mins by spectrophotometric analysis; assay type: protein assay

First: CCn1c(Cc2csc(N)n2)nnc1SCc1ccc(Cl)cc1
Second: CCn1c(Cc2csc(N)n2)nnc1SCc1ccc(Cl)cc1Cl
The IC50 of the first is 6-fold higher: 0.006 µM for the first, 0.001 µM for the second.

Compared with Cc1ccccc1CNC(=O)CSc1nnc(Cc2csc(N)n2)n1-c1ccccc1, CCn1c(Cc2csc(N)n2)nnc1SCc1ccccc1Cl is 2800-fold lower in IC50: 16.832 µM for the first, 0.006 µM for the second.

CCn1c(Cc2csc(N)n2)nnc1SCc1cccc(Br)c1 showed an IC50 of 0.002 µM.
